Data as given in patent publication US6734182B2, “Aryl sulfonamides and sulfamide derivatives and uses thereof” (Synaptic Pharmaceutical Corporation, priority 1995, dated 2004).

Experiments:
[1] = target: T1, human α2B receptor (Homo sapiens, UniProt P18089); assay: Binding to cloned human α2B adrenergic receptor ([3H]rauwolscine)
T1 construct: expressed in transfected cells

[2] = target: T2, human Y5 receptor (Homo sapiens, UniProt Q15761); assay: Radioligand binding to cloned human Y5 receptor (125I-PYY); details: cloned human Y5, stably transfected cells, read-out: Binding Affinity (K1 (nM) vs. 125I-PYY) Human Receptor Y5
T2 construct: expressed in transfected cells
T2 sequence (Q15761 1-445): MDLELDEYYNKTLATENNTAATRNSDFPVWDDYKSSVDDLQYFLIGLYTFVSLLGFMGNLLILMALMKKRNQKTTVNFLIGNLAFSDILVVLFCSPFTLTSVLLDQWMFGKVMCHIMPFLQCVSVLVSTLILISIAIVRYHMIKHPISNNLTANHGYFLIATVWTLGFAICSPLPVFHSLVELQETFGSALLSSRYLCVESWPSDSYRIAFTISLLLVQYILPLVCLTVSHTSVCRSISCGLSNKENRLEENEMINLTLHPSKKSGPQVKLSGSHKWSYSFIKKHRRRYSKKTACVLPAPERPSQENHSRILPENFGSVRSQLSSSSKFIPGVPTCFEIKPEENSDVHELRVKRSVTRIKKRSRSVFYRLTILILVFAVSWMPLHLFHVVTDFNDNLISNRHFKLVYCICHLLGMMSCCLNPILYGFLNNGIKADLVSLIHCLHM

[3] = target: T3, cloned human Y5 receptor (Homo sapiens, UniProt Q15761); assay: Functional assay: block of NPY-induced inhibition of cAMP accumulation in forskolin-stimulated LM(tk-) cells (radioimmunoassay of cAMP); type: cell-based; details: antagonism of NPY-induced inhibition of cAMP accumulation, forskolin-stimulated LM(tk-) cells with human Y5; at least three experiments
T3 construct: expressed in transfected cells
T3 sequence (Q15761 1-445): T2 sequence (Q15761 1-445)

[4] = target: T4, human Y4 receptor (Homo sapiens, UniProt P50391); assay: Radioligand binding to cloned human Y4 receptor (125I-PYY); details: cloned human Y4, stably transfected cells, read-out: Binding Affinity (K1 (nM) vs. 125I-PYY) Human Receptor Y4
T4 construct: expressed in transfected cells
T4 sequence (P50391 whole entry): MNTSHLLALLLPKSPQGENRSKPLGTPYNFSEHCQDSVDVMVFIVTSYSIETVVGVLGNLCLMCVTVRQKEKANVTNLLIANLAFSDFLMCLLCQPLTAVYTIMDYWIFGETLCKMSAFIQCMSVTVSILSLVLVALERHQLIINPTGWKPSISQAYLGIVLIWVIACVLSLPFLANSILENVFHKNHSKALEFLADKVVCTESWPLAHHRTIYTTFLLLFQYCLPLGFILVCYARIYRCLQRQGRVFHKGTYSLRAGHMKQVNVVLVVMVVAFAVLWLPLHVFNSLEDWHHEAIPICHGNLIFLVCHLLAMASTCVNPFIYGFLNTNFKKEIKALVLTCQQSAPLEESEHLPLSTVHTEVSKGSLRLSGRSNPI
Experimental: Human Y1, human Y2, and rat Y5 receptors were co-transfected with a G-418 resistant gene into the human embryonic kidney 293 cell line by a calcium phosphate transfection method (Cullen, 1987). Stably transfected cells were selected with G-418. Human Y4 and human Y5 receptors were similarly transfected into mouse fibroblast LM(tk−) cells and NIH-3T3 cells.
Binding of the compounds of the present invention to the human Y1, Y2, Y4 and Y5 receptors was evaluated using stably transfected 293 or LM(tk−) cells as described above. Stably transfected cell lines which may be used for binding assays include, for example, for the human Y1 receptor, 293-hY1-5 (deposited Jun. 4, 1996, under ATCC Accession No. CRL-12121), for the human Y2 receptor, 293-hY2-10 (deposited Jan. 27, 1994, under ATCC Accession No. CRL-11537), for the human Y4 receptor, L-hY4-3 (deposited Jan. 11, 1995, under ATCC Accession No. CRL-11779), and for the human Y5 receptor, L-hY5-7 (deposited Nov. 15, 1995, under ATCC Accession No. CRL-11995).
Membranes were harvested from COS-7 cells 48 hours after transient transfection. Adherent cells were washed twice in ice-cold phosphate buffered saline (138 mM NaCl, 8.1 mM Na2HPO4, 2.5 mM KCl, […], 0.9 mM CaCl2, 0.5 mM MgCl2, pH 7.4) and lysed by sonication in ice-cold sonication buffer (20 mM Tris-HCl, 5 mM EDTA, pH 7.7). Large particles and debris were cleared by low speed centrifugation (200 x g, 5 min, 4° C.). Membranes were collected from the supernatant fraction by centrifugation (32,000 x g, 18 min, […] ), washed with ice-cold hypotonic buffer, and collected again by centrifugation (32,000 x g, 18 min, 4° C.). […] Protein concentration was measured by the Bradford method (Bradford, 1976) using Bio-Rad Reagent, with bovine serum albumin as a standard. Membranes were held on ice for up to one hour and used fresh, or flash-frozen and stored in liquid nitrogen.
Membranes were prepared similarly from 293, LM(tk−), and NIH-3T3 cells. To prepare membranes from baculovirus infected cells, 2×10^7 Sf21 cells were grown in 150 mm tissue culture dishes and infected with a high-titer stock of hY5BB3. Cells were incubated for 2-4 days at 27° C., no CO2 be fore harvesting and membrane preparation as described above.

[5] = target: T5, human 5HT1E receptor (Homo sapiens, UniProt P28566); assay: Binding to human 5HT1E receptor ([3H]serotonin); details: cloned human receptor
T5 construct: expressed in transfected cells
T5 sequence (P28566 whole entry): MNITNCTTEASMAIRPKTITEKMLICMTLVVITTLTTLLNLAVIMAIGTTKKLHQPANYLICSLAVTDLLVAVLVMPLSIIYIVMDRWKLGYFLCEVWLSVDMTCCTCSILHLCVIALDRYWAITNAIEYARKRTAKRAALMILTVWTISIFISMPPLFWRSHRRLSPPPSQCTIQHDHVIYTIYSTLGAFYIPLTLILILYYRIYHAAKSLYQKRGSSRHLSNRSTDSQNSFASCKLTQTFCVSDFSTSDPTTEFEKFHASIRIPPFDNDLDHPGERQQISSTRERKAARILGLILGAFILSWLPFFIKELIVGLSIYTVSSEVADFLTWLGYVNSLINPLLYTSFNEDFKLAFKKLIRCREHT
Experimental: 5HT1Dα, 5HT1Dβ, 5HT1E, 5HT1F Receptors: LM(tk−) clonal cell lines stably transfected with the genes encoding each of these 5HT receptor subtypes were prepared as described above. The cell line for the 5HT1Dα, receptor, designated as Ltk−8-30-84, was deposited on Apr. 17, 1990, and accorded ATCC Accession No. CRL 10421. The cell for the 5HT1Dβ receptor, designated as Ltk−11, was deposited on Apr. 17, 1990, and accorded ATCC Accession No. CRL 10422. The cell line for the 5HT1E receptor, designated 5 HT1E-7, was deposited on Nov. 6, 1991, and accorded ATCC Accession No. CRL 10913. The cell line for the 5HT1F receptor, designated L-5-HT1F, was deposited on Dec. 27, 1991, and accorded ATCC Accession No. ATCC 10957. Membrane preparations comprising these receptors were prepared as described below, and suspended in 50 mM Tris-HCl buffer (pH 7.4 at 37° C.) containing 10 mM MgCl2, 0.2 mM EDTA, 10 μM pargyline, and 0.1% ascorbate. The binding of compounds was determined in competition binding assays by incubation for 30 minutes at 37° C. in the presence of 5 nM [^3H) serotonin. Nonspecific binding was determined in the presence of 10 μM serotonin. The bound radioligand was separated by filtration through GF/B filters using a cell harvester.

[6] = target: T6, human Y1 receptor (Homo sapiens, UniProt P25929); assay: Radioligand binding to cloned human Y1 receptor (125I-PYY); details: cloned human Y1, stably transfected cells, read-out: Binding Affinity (K1 (nM) vs. 125I-PYY) Human Receptor Y1
T6 construct: expressed in transfected cells
T6 sequence (P25929 1-384): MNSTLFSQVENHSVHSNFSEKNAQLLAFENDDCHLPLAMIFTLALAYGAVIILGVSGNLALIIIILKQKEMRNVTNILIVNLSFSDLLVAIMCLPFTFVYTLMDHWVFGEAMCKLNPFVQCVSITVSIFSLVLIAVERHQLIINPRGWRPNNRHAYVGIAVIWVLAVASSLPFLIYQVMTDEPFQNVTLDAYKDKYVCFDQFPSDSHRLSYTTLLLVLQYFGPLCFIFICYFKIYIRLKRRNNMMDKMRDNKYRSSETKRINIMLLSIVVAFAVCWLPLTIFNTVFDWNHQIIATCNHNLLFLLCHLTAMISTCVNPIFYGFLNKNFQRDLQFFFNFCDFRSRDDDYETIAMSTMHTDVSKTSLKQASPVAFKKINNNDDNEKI

[7] = target: T7, human α2A receptor (Homo sapiens, UniProt P08913); assay: Binding to cloned human α2A adrenergic receptor ([3H]rauwolscine)
T7 construct: expressed in transfected cells
T7 sequence (P08913 whole entry): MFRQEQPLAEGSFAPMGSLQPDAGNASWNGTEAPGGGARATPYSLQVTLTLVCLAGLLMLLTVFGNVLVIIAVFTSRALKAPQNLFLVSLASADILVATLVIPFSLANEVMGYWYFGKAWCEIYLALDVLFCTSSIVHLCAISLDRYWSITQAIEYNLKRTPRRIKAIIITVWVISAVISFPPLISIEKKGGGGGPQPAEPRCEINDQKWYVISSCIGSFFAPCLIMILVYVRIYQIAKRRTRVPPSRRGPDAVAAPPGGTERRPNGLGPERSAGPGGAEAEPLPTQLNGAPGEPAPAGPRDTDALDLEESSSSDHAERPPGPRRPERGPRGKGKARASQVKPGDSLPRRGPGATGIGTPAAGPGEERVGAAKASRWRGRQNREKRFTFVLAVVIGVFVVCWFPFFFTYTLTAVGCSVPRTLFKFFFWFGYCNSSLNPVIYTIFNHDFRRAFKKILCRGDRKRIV

T1 sequence (P18089 whole entry): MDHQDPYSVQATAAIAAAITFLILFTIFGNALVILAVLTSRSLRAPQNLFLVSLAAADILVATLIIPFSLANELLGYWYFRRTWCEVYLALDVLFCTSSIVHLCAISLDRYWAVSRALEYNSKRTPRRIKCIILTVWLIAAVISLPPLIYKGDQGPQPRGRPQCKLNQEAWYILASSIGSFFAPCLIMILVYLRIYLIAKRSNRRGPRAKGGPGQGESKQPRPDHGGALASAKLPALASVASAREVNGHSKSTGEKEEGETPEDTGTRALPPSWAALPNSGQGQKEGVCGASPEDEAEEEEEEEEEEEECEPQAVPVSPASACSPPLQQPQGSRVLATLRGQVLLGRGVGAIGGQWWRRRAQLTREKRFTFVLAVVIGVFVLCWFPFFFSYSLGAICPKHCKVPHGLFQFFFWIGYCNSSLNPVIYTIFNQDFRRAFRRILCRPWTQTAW

Receptor (pKi) α2b [1] | Ki [2] | Kb [3] | Ki [4] | Receptor (pKi) 5HT1E [5] | Ki [6] | Receptor (pKi) α2a [7] | Structure (SMILES)
6.58 | 11 nM | 23 nM | 11700 nM | ≤ 5.30 | 3550 nM | 6.74 | Cl.O=S(=O)(NCC1CCC(CNCC2CCc3ccccc3C2)CC1)c1cccc2ccccc12 (centres unmarked) [Example 32]
6.96 | 8.3 nM | 26 nM | 20400 nM | ≤ 5.30 | 16000 nM | 7.31 | Cl.O=[N+]([O-])c1ccccc1S(=O)(=O)NCC1CCC(CNCC2CCc3ccccc3C2)CC1 (centres unmarked) [Example 36]
